According to ChEMBL document CHEMBL5126668, “The Invention of WM382, a Highly Potent PMIX/X Dual Inhibitor toward the Treatment of Malaria” (ACS Med Chem Lett, 2022):
Values after ≈ are worked out from the molar mass of the structure shown.

Columns and labels:
Plasmodium falciparum [1] = test: Antimalarial activity against asexual blood stage Plasmodium falciparum infected in RBC measured after 72 hrs by LDH release assay; format: functional, organism-based; conditions: Erythrocyte
Plasmepsin X = Plasmepsin X (Plasmodium falciparum (isolate 3D7), UniProt Q8IAS0); test: Inhibition of Plasmodium falciparum 3D7 HA-glms-tagged PMX using DABCYL-HSFIQEGKEE-EDANS as substrate measured after 2 hrs by FRET assay
Plasmepsin X, sequence (Q8IAS0 whole entry): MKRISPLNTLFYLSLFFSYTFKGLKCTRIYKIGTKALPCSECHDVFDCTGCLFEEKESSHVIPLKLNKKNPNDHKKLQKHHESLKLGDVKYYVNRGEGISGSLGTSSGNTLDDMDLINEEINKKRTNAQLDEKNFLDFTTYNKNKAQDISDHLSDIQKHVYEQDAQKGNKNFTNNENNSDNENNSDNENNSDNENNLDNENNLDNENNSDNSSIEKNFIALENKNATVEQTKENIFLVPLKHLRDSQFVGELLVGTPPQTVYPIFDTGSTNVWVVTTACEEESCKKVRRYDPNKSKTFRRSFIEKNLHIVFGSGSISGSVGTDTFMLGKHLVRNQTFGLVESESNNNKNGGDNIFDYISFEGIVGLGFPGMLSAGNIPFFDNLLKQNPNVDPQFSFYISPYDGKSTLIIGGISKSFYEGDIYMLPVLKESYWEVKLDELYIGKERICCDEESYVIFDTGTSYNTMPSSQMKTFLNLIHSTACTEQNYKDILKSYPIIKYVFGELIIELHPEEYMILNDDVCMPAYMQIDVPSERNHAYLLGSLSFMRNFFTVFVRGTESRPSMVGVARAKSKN

Plasmepsin IX = target: T1, Plasmepsin IX (Plasmodium falciparum, UniProt Q8ILG2); test: Inhibition of Plasmodium falciparum 3D7 HA-glms-tagged PMIX using DABCYL-HSFIQEGKEE-EDANS as substrate measured after 2 hrs by FRET assay
T1 sequence (Q8ILG2 whole entry): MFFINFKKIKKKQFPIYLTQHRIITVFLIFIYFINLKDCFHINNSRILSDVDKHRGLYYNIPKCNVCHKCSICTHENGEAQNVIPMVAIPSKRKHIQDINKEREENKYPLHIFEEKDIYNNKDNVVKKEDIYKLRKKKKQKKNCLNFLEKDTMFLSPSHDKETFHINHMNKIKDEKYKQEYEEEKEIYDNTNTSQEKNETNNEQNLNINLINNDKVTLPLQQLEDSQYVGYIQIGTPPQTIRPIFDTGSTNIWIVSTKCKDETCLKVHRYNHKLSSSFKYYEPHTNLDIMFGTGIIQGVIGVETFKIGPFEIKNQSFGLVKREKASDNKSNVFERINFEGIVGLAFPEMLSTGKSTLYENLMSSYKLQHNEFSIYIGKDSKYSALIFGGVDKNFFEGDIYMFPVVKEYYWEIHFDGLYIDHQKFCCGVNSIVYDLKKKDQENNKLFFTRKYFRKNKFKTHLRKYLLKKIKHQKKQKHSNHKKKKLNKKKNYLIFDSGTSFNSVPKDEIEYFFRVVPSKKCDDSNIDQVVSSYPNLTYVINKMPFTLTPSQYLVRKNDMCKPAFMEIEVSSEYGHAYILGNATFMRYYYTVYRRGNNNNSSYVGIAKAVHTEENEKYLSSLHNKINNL

Plasmodium falciparum [2] = test: Antimalarial activity Plasmodium falciparum Dd2 assessed as EC90 fold pressure measured up to 62 days by microscopy; format: functional; conditions: Dd2, 1488 h, time <= 62 day
Plasmodium falciparum [3] = test: Antimalarial activity Plasmodium falciparum Dd2 assessed as minimum inoculum for resistance measured up to 62 days by microscopy; format: functional; conditions: time <= 62 day
[4] = Lipophilicity, log D of compound at pH 7.4; format: physicochemical; conditions: buffer
[5] = Kinetic solubility of the compound; format: physicochemical; conditions: read-out: Kinetic_solubility
[6] = Apparent permeability across apical to basolateral side in MDCK cells; format: ADME, cell-based, Canis lupus familiaris; conditions: dog
[7] = Mean residence time in rat; format: ADME; conditions: in vivo
[8] = Plasma clearance in rat; format: ADME
[9] = Unbound clearance in rat; format: ADME; conditions: in vivo
[10] = Volume of distribution in rat; format: ADME; conditions: in vivo
[11] = Unbound volume of distribution in rat; format: ADME; conditions: in vivo
[12] = Oral bioavailability in rat; format: ADME, organism-based; conditions: in vivo
[13] = Protein binding in rat plasma; format: ADME, cell-free; conditions: read-out: PPB (converted)
[14] = Mean residence time in mouse; format: ADME, organism-based; conditions: in vivo
[15] = Plasma clearance in mouse; format: ADME, organism-based
[16] = Unbound plasma clearance in mouse; format: ADME, organism-based; conditions: in vivo
[17] = Volume of distribution in mouse; format: ADME, organism-based; conditions: in vivo
[18] = Unbound volume of distribution in mouse; format: ADME, organism-based; conditions: in vivo
[19] = Oral bioavailability in mouse; format: ADME, organism-based; conditions: in vivo
[20] = Protein binding in mouse plasma; format: ADME, cell-free; conditions: read-out: PPB (converted)

CC(C)[C@]1(C)CC(=O)N(Cc2cccc(C(=O)NC3CCNc4ccccc43)c2)C(=N)N1 (mixture of isomers)
EC50 (Plasmodium falciparum [1]): 64 nM

CC(C)[C@]1(C)CC(=O)N(Cc2cccc(C(=O)NC3CCc4ccccc43)c2)C(=N)N1 (mixture of isomers)
EC50 (Plasmodium falciparum [1]): 66 nM

CCC1(CC)CC(=O)N([C@H](c2ccccc2)c2cccc(C(=O)N[C@@H](C)c3ccccc3)c2)C(=N)N1
EC50 (Plasmodium falciparum [1]): 1 nM

CCC1(CC)CC(=O)N([C@H](c2cccnc2)c2cccc(C(=O)N[C@@H](C)c3ccccc3)c2)C(=N)N1
EC50 (Plasmodium falciparum [1]): 1 nM

CC(C)[C@]1(C)CC(=O)N(Cc2cccc(C(=O)N3Cc4ccccc4C3)c2)C(=N)N1
EC50 (Plasmodium falciparum [1]): > 1000 nM

CCC1(CC)CC(=O)N([C@H](CCO)c2cccc(C(=O)N[C@@H](C)c3ccccc3)c2)C(=N)N1
EC50 (Plasmodium falciparum [1]): 210 nM

CCC1(CC)CC(=O)N(Cc2cccc(C(=O)N[C@H]3CCOc4ccccc43)c2)C(=N)N1
EC50 (Plasmodium falciparum [1]): 0.4 nM

C[C@H](NC(=O)c1cc(F)cc(CN2C(=N)NC(c3ccccc3)CC2=O)c1)c1ccccc1 (single isomer, unassigned)
EC50 (Plasmodium falciparum [1]): > 1000 nM

CC(C)[C@]1(C)CC(=O)N(Cc2cccc(C(=O)NCCc3ccccc3)c2)C(=N)N1
EC50 (Plasmodium falciparum [1]): > 1000 nM

CCC1(CC)CC(=O)N([C@@H](c2ccccc2)c2cccc(C(=O)N[C@@H](C)c3ccccc3)c2)C(=N)N1
EC50 (Plasmodium falciparum [1]): 830 nM

CCC1(CC)CC(=O)N(Cc2cc(C(=O)N[C@H]3CCOc4ccccc43)ccn2)C(=N)N1
EC50 (Plasmodium falciparum [1]): 12 nM

CC(C)CC(c1ccc(C(F)(F)F)c(C(=O)N2Cc3nccnc3C2)c1)N1C(=N)N[C@](CC2CC2)(c2ccccc2)CC1=O (stereo partly drawn)
EC50 (Plasmodium falciparum [1]): 17 nM

CCC1(CC)CC(=O)N(Cc2cc(F)cc(C(=O)N[C@@H](C)c3ccccc3)c2)C(=N)N1
EC50 (Plasmodium falciparum [1]): 93 nM

CC(C)[C@]1(C)CC(=O)N([C@H](c2ccccc2)c2cccc(C(=O)N[C@@H](C)c3ccccc3)c2)C(=N)N1
EC50 (Plasmodium falciparum [1]): 4.6 nM | IC50 (Plasmepsin X): 1.9 nM

CCC1(CC)CC(=O)N(C(c2cccc(C(=O)N[C@@H](C)c3ccccc3)c2)C2CC2)C(=N)N1 (mixture of isomers)
EC50 (Plasmodium falciparum [1]): 160 nM

CCC1(CC)CC(=O)N(Cc2cncc(C(=O)N[C@H]3CCOc4ccccc43)c2)C(=N)N1
EC50 (Plasmodium falciparum [1]): 10 nM

C[C@H](NC(=O)c1cc(F)cc(CN2C(=N)NC3(CCCCC3)CC2=O)c1)c1ccccc1
EC50 (Plasmodium falciparum [1]): 250 nM

CCC1(CC)CC(=O)N(Cc2ccnc(C(=O)N[C@H]3CCOc4ccccc43)c2)C(=N)N1
EC50 (Plasmodium falciparum [1]): 17 nM

C[C@H](NC(=O)c1cc(F)cc(CN2C(=N)NC(C)(C)CC2=O)c1)c1ccccc1
EC50 (Plasmodium falciparum [1]): > 1000 nM

CCC1(CC)NC(=N)N(Cc2cc(F)cc(C(=O)N[C@@H](C)c3ccccc3)c2)C1=O
EC50 (Plasmodium falciparum [1]): > 1000 nM

CC(C)C[C@@H](c1ccc(C(F)(F)F)c(C(=O)N2Cc3nccnc3C2)c1)N1C(=N)N[C@](CC2CC2)(c2ccccc2)CC1=O
EC50 (Plasmodium falciparum [1]): 690 nM

C[C@H](NC(=O)c1cc(F)cc(CN2C(=N)N[C@]3(C)CCCC[C@]3(C)C2=O)c1)c1ccccc1
EC50 (Plasmodium falciparum [1]): > 1000 nM

CCNC(=O)c1cccc(CN2C(=N)N[C@](C)(C(C)C)CC2=O)c1
EC50 (Plasmodium falciparum [1]): > 1000 nM

CCC1(CC)CC(=O)N([C@@H]2CCOc3ccc(C(=O)N[C@H]4CCS(=O)(=O)c5ccccc54)cc32)C(=N)N1
EC50 (Plasmodium falciparum [1]): 18 nM | IC50 (Plasmepsin X): 0.3 nM | IC50 (Plasmepsin IX): 24 nM

CCC1(CC)CC(=O)N(Cc2ccnc(C(=O)N[C@H]3CCOc4ccccc43)n2)C(=N)N1
EC50 (Plasmodium falciparum [1]): 65 nM

CC(C)C[C@H](c1ccc(C(F)(F)F)c(C(=O)N2Cc3nccnc3C2)c1)N1C(=N)N[C@](CC2CC2)(c2ccccc2)CC1=O
EC50 (Plasmodium falciparum [1]): 10 nM | IC50 (Plasmepsin X): 5.7 nM

CC(C)[C@]1(C)CC(=O)N(Cc2cccc(C(=O)N[C@H]3CCOc4ccccc43)c2)C(=N)N1
EC50 (Plasmodium falciparum [1]): 1.5 nM

CCC1(CC)CC(=O)N([C@@H]2CCOc3ccc(C(=O)N[C@@H]4c5ccccc5OC4(C)C)cc32)C(=N)N1
EC50 (Plasmodium falciparum [1]): 1.4 nM | IC50 (Plasmepsin X): 0.4 nM | IC50 (Plasmepsin IX): 12 nM

CCC1(CC)CC(=O)N([C@@H]2CCOc3ccc(C(=O)N[C@H]4CCCOc5ccccc54)cc32)C(=N)N1
EC50 (Plasmodium falciparum [1]): 2.8 nM | IC50 (Plasmepsin X): 0.6 nM | IC50 (Plasmepsin IX): 68 nM

CCC[C@H](c1cccc(C(=O)N[C@@H](C)c2ccccc2)c1)N1C(=N)NC(CC)(CC)CC1=O
EC50 (Plasmodium falciparum [1]): 0.8 nM

CC(NC(=O)c1cccc(CN2C(=N)N[C@](C)(C(C)C)CC2=O)c1)c1ccccn1 (mixture of isomers)
EC50 (Plasmodium falciparum [1]): > 1000 nM

CC(C)[C@]1(C)CC(=O)N(C(c2ccccc2)c2cccc(C(=O)N[C@@H](C)c3ccccc3)c2)C(=N)N1 (stereo partly drawn)
EC50 (Plasmodium falciparum [1]): 6.2 nM | EC90 (Plasmodium falciparum [2]): 80 nM | Activity (Plasmodium falciparum [3]): >9

CC(C)[C@]1(C)CC(=O)N(Cc2cccc(C(=O)N[C@@H](C)c3ccccc3)c2)C(=N)N1
EC50 (Plasmodium falciparum [1]): 308 nM

CC(C)[C@]1(C)CC(=O)N([C@@H](c2ccccc2)c2cccc(C(=O)N[C@@H](C)c3ccccc3)c2)C(=N)N1
EC50 (Plasmodium falciparum [1]): 440 nM

CCC1(CC)CC(=O)N(Cc2cccc(C(=O)N[C@H]3CCOc4ccccc43)n2)C(=N)N1
EC50 (Plasmodium falciparum [1]): 110 nM

CC(C)[C@]1(C)CC(=O)N(Cc2cccc(C(=O)NC3COCc4ccccc43)c2)C(=N)N1 (mixture of isomers)
EC50 (Plasmodium falciparum [1]): 53 nM

CC(C)[C@]1(C)CC(=O)N(Cc2cc(F)cc(C(=O)N[C@@H](C)c3ccccc3)c2)C(=N)N1
EC50 (Plasmodium falciparum [1]): 340 nM

CCC1(CC)CC(=O)N([C@H](CCN2CCCC2)c2cccc(C(=O)N[C@@H](C)c3ccccc3)c2)C(=N)N1
EC50 (Plasmodium falciparum [1]): 8.7 nM

CCC1(CC)CC(=O)N(Cc2cc(C(=O)N[C@H]3CCOc4ccccc43)cnn2)C(=N)N1
EC50 (Plasmodium falciparum [1]): 169 nM

CCC[C@H](c1cccc(C(=O)N[C@H]2CCOc3ccccc32)c1)N1C(=N)NC(CC)(CC)CC1=O
EC50 (Plasmodium falciparum [1]): 0.4 nM | IC50 (Plasmepsin X): 0.06 nM | IC50 (Plasmepsin IX): 4.5 nM | logD [4]: 2.9 | solubility kinetic [5]: 0.2 µM (≈ 0.0953 µg/mL) | Papp A→B [6]: 16.3 ×10⁻⁶ cm/s | MRT [7]: 1.1 h | clearance [8]: 103 mL/min/kg | CL free [9]: 5648 mL/min/kg | Vd [10]: 6.7 L/kg | Vdu [11]: 340 L/kg | bioavailability [12]: 6% | fraction unbound [13]: 0.02 | MRT [14]: 1.1 h | clearance [15]: 36 mL/min/kg | CL free [16]: 3148 mL/min/kg | Vd [17]: 2.3 L/kg | Vdu [18]: 204 L/kg | bioavailability [19]: 14% | fraction unbound [20]: 0.011

CC(C)[C@]1(C)CC(=O)N(Cc2cccc(C(=O)NC3CCCc4ccccc43)c2)C(=N)N1 (mixture of isomers)
EC50 (Plasmodium falciparum [1]): 68 nM

CCC1(CC)CC(=O)N([C@@H]2CCOc3ccc(C(=O)NC4CCOc5ccccc54)cc32)C(=N)N1 (single isomer, unassigned)
EC50 (Plasmodium falciparum [1]): 2.5 nM | IC50 (Plasmepsin X): 0.07 nM | IC50 (Plasmepsin IX): 2.2 nM | logD [4]: 2.1 | solubility kinetic [5]: 0.2 µM (≈ 0.0953 µg/mL) | Papp A→B [6]: 8.8 ×10⁻⁶ cm/s | MRT [7]: 2.7 h | clearance [8]: 79 mL/min/kg | CL free [9]: 518 mL/min/kg | Vd [10]: 12 L/kg | Vdu [11]: 80 L/kg | bioavailability [12]: 27% | fraction unbound [13]: 0.152 | MRT [14]: 1.3 h | clearance [15]: 68 mL/min/kg | CL free [16]: 1278 mL/min/kg | Vd [17]: 5.4 L/kg | Vdu [18]: 102 L/kg | bioavailability [19]: 4% | fraction unbound [20]: 0.053

CCC1(CC)CC(=O)N([C@H](CCOC)c2cccc(C(=O)N[C@@H](C)c3ccccc3)c2)C(=N)N1
EC50 (Plasmodium falciparum [1]): 40 nM

CCC1(CC)CC(=O)N(Cc2cccc(C(=O)N[C@@H](C)c3ccccc3)c2)C(=N)N1
EC50 (Plasmodium falciparum [1]): 114 nM

C[C@H](NC(=O)c1cc(F)cc(CN2C(=N)N[C@@](CC3CC3)(c3ccccc3)CC2=O)c1)c1ccccc1
EC50 (Plasmodium falciparum [1]): 22 nM
